Measured values published in patent US12180187B2, “1-phenyl-5-azinylpyrazolyl-3-oxyalkyl acids and their use for controlling unwanted plant growth” (BAYER AKTIENGESELLSCHAFT, priority 2019, dated 2024).

Columns and labels:
[1] = test system: LOLRI; experiment: Pre-emergence action against LOLRI, 1280 g/ha; assay type: in vivo, Lolium rigidum; conditions: visual scoring after about 3 weeks vs untreated controls, 100% = plants have died, 0% = like control plants
Method in brief: (§1)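 Activity was scored visually as percent versus untreated controls about 3 weeks after treatment (100% = dead plants, 0% = control-like). Compounds, formulated as wettable powders or emulsion concentrates, were sprayed onto the covering soil over freshly sown seeds in sandy loam, with 0.5% additive and 600 L/ha water.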

[2] = test system: VERPE; experiment: Post-emergence action against VERPE, 1.28 kg/ha; assay type: in vivo, Veronica persica; conditions: dosage 1280 g/ha, visual rating about 3 weeks after treatment vs untreated controls (100% = plants died)
Method in brief: (§2)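 Greenhouse pot test, sandy loam; weeds sprayed post-emergence at one-leaf stage (2–3 weeks after sowing) with WP or EC formulation plus 0.5% additive, 600 l/ha water. Visual rating after about 3 weeks versus untreated controls, 100% = plants dead, 0% = like control.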

[3] = test system: VERPE; experiment: Pre-emergence action against VERPE, 1280 g/ha; assay type: in vivo, Veronica persica; conditions: scored visually after about 3 weeks vs untreated controls (100% = plants have died)
Method in brief: as §1

[4] = test system: KCHSC; experiment: Pre-emergence action against KCHSC, 1280 g/ha; assay type: in vivo, Bassia scoparia; conditions: scored visually after about 3 weeks vs untreated controls (100% = plants have died)
Text: 1. Pre-Emergence Herbicidal Effect and Crop Plant Compatibility a) Seeds of mono- and dicotyledonous weed plants are placed in plastic pots in sandy loam soil (doubly sown with one species each of mono- or dicotyledonous weed plants per pot) and covered with soil. The compounds of the invention, formulated in the form of wettable powders (WP) or as emulsion concentrates (EC), are then applied onto the surface of the covering soil as aqueous suspension or emulsion with addition of 0.5% additive at a water application rate equivalent to 600 litres per hectare. After the treatment, the pots are placed in a greenhouse and kept under good growth conditions for the trial plants. After about 3 weeks, the effect of the preparations is scored visually in comparison with untreated controls as percentages. For example, 100% activity=the plants have died, 0% activity=like control plants. 1. Pre-Emergence Effectiveness Tables 1 to 12 below show the effects of selected compounds of the general formula (I) according to Tables 1 and 2 on various harmful plants and at an application rate corresponding to 1280 g/ha, which were obtained by the experimental procedure mentioned above.

[5] = test system: DIGSA; experiment: Pre-emergence action against DIGSA, 1280 g/ha; assay type: in vivo, Digitaria sanguinalis; conditions: visual scoring after about 3 weeks vs untreated controls, 100% = plants have died, 0% = like control plants
Method in brief: as §1

[6] = test system: POAAN; experiment: Pre-emergence action against POAAN, 1280 g/ha; assay type: in vivo, Poa annua; conditions: visual scoring after about 3 weeks vs untreated controls, 100% = plants have died, 0% = like control plants
Method in brief: as §1

[7] = test system: MATIN; experiment: Pre-emergence action against MATIN, 1280 g/ha; assay type: in vivo, Tripleurospermum inodorum (Matricaria inodora); conditions: scored visually after about 3 weeks vs untreated controls (100% = plants have died)
Method in brief: as §1

[8] = test system: AMARE; experiment: Pre-emergence action against AMARE, 1280 g/ha; assay type: in vivo, Amaranthus retroflexus; conditions: scored visually after about 3 weeks vs untreated controls (100% = plants have died)
Method in brief: as §1

[9] = test system: ALOMY; experiment: Pre-emergence action against ALOMY, 1280 g/ha; assay type: in vivo, Alopecurus myosuroides; conditions: visual scoring after about 3 weeks vs untreated controls, 100% = plants have died, 0% = like control plants
Method in brief: as §1

[10] = test system: STEME; experiment: Pre-emergence action against STEME, 1280 g/ha; assay type: in vivo, Stellaria media; conditions: scored visually after about 3 weeks vs untreated controls (100% = plants have died)
Method in brief: as §1

[11] = test system: SETVI; experiment: Pre-emergence action against SETVI, 1280 g/ha; assay type: in vivo, Setaria viridis; conditions: visual scoring after about 3 weeks vs untreated controls, 100% = plants have died, 0% = like control plants
Method in brief: as §1

[12] = test system: MATIN; experiment: Post-emergence action against MATIN, 1.28 kg/ha; assay type: in vivo, Tripleurospermum inodorum (Matricaria inodora); conditions: dosage 1280 g/ha, visual rating about 3 weeks after treatment vs untreated controls (100% = plants died)
Method in brief: as §2

[13] = test system: ECHCG; experiment: Pre-emergence action against ECHCG, 1280 g/ha; assay type: in vivo, Echinochloa crus-galli; conditions: visual scoring after about 3 weeks vs untreated controls, 100% = plants have died, 0% = like control plants
Method in brief: as §1

[14] = test system: DIGSA; experiment: Post-emergence action against DIGSA, 1.28 kg/ha; assay type: in vivo, Digitaria sanguinalis; conditions: dosage 1280 g/ha, visual rating about 3 weeks after treatment vs untreated controls
Method in brief: as §2

[15] = test system: ALOMY; experiment: Post-emergence action against ALOMY, 1.28 kg/ha; assay type: in vivo, Alopecurus myosuroides; conditions: dosage 1280 g/ha, visual rating about 3 weeks after treatment vs untreated controls
Method in brief: as §2

[16] = test system: ABUTH; experiment: Post-emergence action against ABUTH, 1.28 kg/ha; assay type: in vivo, Abutilon theophrasti; conditions: dosage 1280 g/ha, visual rating about 3 weeks after treatment vs untreated controls (100% = plants died)
Method in brief: as §2

[17] = test system: POAAN; experiment: Post-emergence action against POAAN, 1.28 kg/ha; assay type: in vivo, Poa annua; conditions: dosage 1280 g/ha, visual rating about 3 weeks after treatment vs untreated controls
Method in brief: as §2

[18] = test system: STEME; experiment: Post-emergence action against STEME, 1.28 kg/ha; assay type: in vivo, Stellaria media; conditions: dosage 1280 g/ha, visual rating about 3 weeks after treatment vs untreated controls (100% = plants died)
Method in brief: as §2

[19] = test system: AMARE; experiment: Post-emergence action against AMARE, 1.28 kg/ha; assay type: in vivo, Amaranthus retroflexus; conditions: dosage 1280 g/ha, visual rating about 3 weeks after treatment vs untreated controls (100% = plants died)
Method in brief: as §2

[20] = test system: ECHCG; experiment: Post-emergence action against ECHCG, 1.28 kg/ha; assay type: in vivo, Echinochloa crus-galli; conditions: dosage 1280 g/ha, visual rating about 3 weeks after treatment vs untreated controls
Method in brief: as §2

[21] = test system: LOLRI; experiment: Post-emergence action against LOLRI, 1.28 kg/ha; assay type: in vivo, Lolium rigidum; conditions: dosage 1280 g/ha, visual rating about 3 weeks after treatment vs untreated controls
Method in brief: as §2

[22] = test system: DIGSA; experiment: Pre-emergence action at 320 g/ha against DIGSA; assay type: in vivo, Digitaria sanguinalis; conditions: visual scoring after about 3 weeks vs untreated controls
Method in brief: (§3)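 Visual scoring in percent against untreated controls, about 3 weeks after treatment, where 100% means dead plants and 0% means no difference. Compounds were applied as aqueous suspension or emulsion (WP or EC, plus 0.5% additive) onto soil covering freshly sown seeds, at 600 l/ha water.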

[23] = test system: ALOMY; experiment: Pre-emergence action at 320 g/ha against ALOMY; assay type: in vivo, Alopecurus myosuroides; conditions: scored visually after about 3 weeks vs untreated controls (100% = plants have died)
Method in brief: as §3

[24] = test system: MATIN; experiment: Pre-emergence action at 320 g/ha against MATIN; assay type: in vivo, Tripleurospermum inodorum (Matricaria inodora); conditions: visual scoring after about 3 weeks vs untreated controls
Method in brief: as §3

[25] = test system: VIOTR; experiment: Pre-emergence action at 320 g/ha against VIOTR; assay type: in vivo, Viola tricolor; conditions: dosage 320 g/ha
Method in brief: as §3

[26] = test system: VERPE; experiment: Pre-emergence action at 320 g/ha against VERPE; assay type: in vivo, Veronica persica; conditions: visual scoring after about 3 weeks vs untreated controls
Method in brief: as §3

[27] = test system: SETVI; experiment: Pre-emergence action at 320 g/ha against SETVI; assay type: in vivo, Setaria viridis; conditions: visual scoring after about 3 weeks vs untreated controls
Method in brief: as §3

[28] = test system: POLCO; experiment: Pre-emergence action at 320 g/ha against POLCO; assay type: in vivo, Fallopia convolvulus (Polygonum convolvulus); conditions: visual scoring after about 3 weeks vs untreated controls
Method in brief: as §3

[29] = test system: AMARE; experiment: Pre-emergence action at 320 g/ha against AMARE; assay type: in vivo, Amaranthus retroflexus; conditions: visual scoring after about 3 weeks vs untreated controls
Method in brief: as §3

[30] = test system: ALOMY; experiment: Post-emergence action against ALOMY, 320 g/ha; assay type: in vivo, Alopecurus myosuroides; conditions: dosage 320 g/ha, visual rating about 3 weeks after treatment vs untreated controls (100% = plants died)
Text: Accordingly, the compounds of the invention have good herbicidal action against a broad spectrum of weed grasses and broad-leaved weeds and are therefore suitable for controlling unwanted vegetation by the post-emergence method. • b) Seeds of monocotyledonous and dicotyledonous weeds and crop plants are placed in sandy loam in plastic or organic planting pots, covered with soil and cultivated in a greenhouse under controlled growth conditions. 2 to 3 weeks after sowing, the test plants are treated at the one-leaf stage. The compounds of the invention, formulated in the form of wettable powders (WP) or as emulsion concentrates (EC), are then sprayed onto the green parts of the plants as aqueous suspension or emulsion with addition of 0.5% additive at a water application rate of 600 l/ha (converted). After the test plants have been kept in the greenhouse under optimum growth conditions for about 3 weeks, the activity of the preparations is rated visually in comparison to untreated controls. For example, 100% activity=the plants have died, 0% activity=like control plants. Tables 39 to 49 below show the effects of selected compounds of the general formula (I) according to Tables 1 and 2 on various harmful plants and at an application rate corresponding to 320 g/ha, which were obtained by the experimental procedure mentioned above.

| Structure (SMILES) | Pre-emergence action against LOLRI [1] [%] | Post-emergence action against VERPE [2] [%] | Pre-emergence action against VERPE [3] [%] | Pre-emergence action against KCHSC [4] [%] | Pre-emergence action against DIGSA [5] [%] | Pre-emergence action against POAAN [6] [%] | Pre-emergence action against MATIN [7] [%] | Pre-emergence action against AMARE [8] [%] | Pre-emergence action against ALOMY [9] [%] | Pre-emergence action against STEME [10] [%] | Pre-emergence action against SETVI [11] [%] | Post-emergence action against MATIN [12] [%] | Pre-emergence action against ECHCG [13] [%] | Post-emergence action against DIGSA [14] [%] | Post-emergence action against ALOMY [15] [%] | Post-emergence action against ABUTH [16] [%] | Post-emergence action against POAAN [17] [%] | Post-emergence action against STEME [18] [%] | Post-emergence action against ECHCG [20] [%] | other results |
| --- | --- | --- | --- | --- | --- | --- | --- | --- | --- | --- | --- | --- | --- | --- | --- | --- | --- | --- | --- | --- |
| C[C@@H](Oc1nn(-c2ccccc2F)c(-c2cnccn2)c1Br)C(=O)O [Example I-002] | 90 | 90 | 100 | 100 | 100 | 100 | 100 | 100 | 90 | 100 | 100 |  |  |  |  |  |  |  |  |  |
| O=C(O)C1CCN(C(=O)COc2nn(-c3ccccc3F)c(-c3cncc(F)c3)c2Br)C1 (stereo not shown) [Example X-040] | 90 | 100 | 90 | 90 | 90 | 90 | 90 | 90 |  | 90 | 90 | 100 | 90 | 90 | 100 | 90 | 100 |  |  |  |
| O=C(COc1nn(-c2ccccc2F)c(-c2ccc(F)cn2)c1Br)NO [II-017] |  | 90 |  | 100 | 100 | 100 | 90 | 100 |  | 90 | 100 | 90 |  |  | 100 |  | 100 |  |  |  |
| CCOC(=O)COc1nn(-c2ccccc2C)c(-c2ccc(F)nc2)c1I [VII-058] | 100 | 90 | 100 | 90 | 100 | 100 | 100 | 100 | 90 | 100 | 100 | 90 | 100 | 100 | 100 | 90 | 100 | 90 | 100 | Post-emergence action against AMARE [19]: 100%; Post-emergence action against LOLRI [21]: 100% |
| CCOC(=O)COc1nn(-c2ccccc2C)c(-c2ccc(F)nc2)c1C(F)(F)F [VII-105] | 100 | 90 | 100 |  | 100 | 100 | 90 | 100 | 100 | 100 | 100 | 100 | 100 | 100 | 100 |  | 100 | 100 | 100 | Pre-emergence action against DIGSA in % [22]: 100%; Pre-emergence action at 320 g/ha against ALOMY in % [23]: 90%; Pre-emergence action against MATIN in % [24]: 100%; Pre-emergence action against VIOTR in % [25]: 90%; Pre-emergence action against VERPE in % [26]: 90%; Pre-emergence action against SETVI in % [27]: 80%; Pre-emergence action against POLCO in % [28]: 90%; Pre-emergence action against AMARE in % [29]: 90%; Post-emergence action against ALOMY [30]: 90% |
